Test [1] concerns the target Beta-2 adrenergic receptor (Homo sapiens, UniProt P07550).
Another test deals with D(1A) dopamine receptor (Homo sapiens, UniProt P21728).
In test [2] the target is T1, Solute carrier family 22 member 1 (Homo sapiens, UniProt O15245).
T1 sequence (O15245 whole entry): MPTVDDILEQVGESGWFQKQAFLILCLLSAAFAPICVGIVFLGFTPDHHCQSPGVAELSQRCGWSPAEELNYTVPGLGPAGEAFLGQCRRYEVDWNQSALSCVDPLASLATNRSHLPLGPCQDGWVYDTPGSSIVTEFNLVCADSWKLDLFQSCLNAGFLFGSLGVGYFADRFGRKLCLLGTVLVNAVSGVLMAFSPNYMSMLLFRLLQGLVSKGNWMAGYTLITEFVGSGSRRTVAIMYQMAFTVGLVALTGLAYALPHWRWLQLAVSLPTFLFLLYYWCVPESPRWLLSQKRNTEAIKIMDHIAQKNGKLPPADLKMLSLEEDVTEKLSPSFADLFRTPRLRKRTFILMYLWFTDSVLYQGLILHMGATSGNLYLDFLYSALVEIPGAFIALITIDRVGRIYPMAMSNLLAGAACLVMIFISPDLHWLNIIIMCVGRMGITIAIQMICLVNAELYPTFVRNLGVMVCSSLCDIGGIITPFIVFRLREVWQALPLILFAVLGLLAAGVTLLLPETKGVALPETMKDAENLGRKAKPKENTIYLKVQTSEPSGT

Test [3] concerns the target T2, 5-hydroxytryptamine receptor 1A (Homo sapiens, UniProt P08908).
T2 sequence (P08908 whole entry): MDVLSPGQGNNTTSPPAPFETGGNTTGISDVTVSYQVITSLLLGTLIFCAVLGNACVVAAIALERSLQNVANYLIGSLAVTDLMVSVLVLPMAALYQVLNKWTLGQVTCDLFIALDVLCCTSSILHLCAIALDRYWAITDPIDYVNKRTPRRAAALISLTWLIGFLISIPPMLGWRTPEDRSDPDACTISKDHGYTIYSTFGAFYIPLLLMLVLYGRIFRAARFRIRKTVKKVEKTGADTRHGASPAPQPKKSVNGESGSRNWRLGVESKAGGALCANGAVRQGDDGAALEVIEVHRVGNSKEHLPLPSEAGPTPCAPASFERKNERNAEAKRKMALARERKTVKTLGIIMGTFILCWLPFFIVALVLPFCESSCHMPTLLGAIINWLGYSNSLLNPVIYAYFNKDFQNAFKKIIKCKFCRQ

The target in test [4] is T3, Gamma-aminobutyric acid receptor subunit alpha-1 (Homo sapiens, UniProt P14867).
T3 sequence (P14867 whole entry): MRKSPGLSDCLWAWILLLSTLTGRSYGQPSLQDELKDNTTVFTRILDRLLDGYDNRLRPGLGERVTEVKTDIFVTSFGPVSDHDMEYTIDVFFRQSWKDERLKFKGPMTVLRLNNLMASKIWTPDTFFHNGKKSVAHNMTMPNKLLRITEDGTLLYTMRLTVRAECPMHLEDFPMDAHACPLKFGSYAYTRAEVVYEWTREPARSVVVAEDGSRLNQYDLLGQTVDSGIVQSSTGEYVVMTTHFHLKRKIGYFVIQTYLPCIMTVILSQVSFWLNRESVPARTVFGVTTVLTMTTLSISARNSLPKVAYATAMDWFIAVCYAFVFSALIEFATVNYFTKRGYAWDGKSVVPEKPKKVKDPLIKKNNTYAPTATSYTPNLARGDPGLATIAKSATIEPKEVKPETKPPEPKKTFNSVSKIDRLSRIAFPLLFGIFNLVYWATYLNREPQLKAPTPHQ

The target in test [5] is T4, Muscarinic acetylcholine receptor M2 (Homo sapiens, UniProt P08172).
T4 sequence (P08172 whole entry): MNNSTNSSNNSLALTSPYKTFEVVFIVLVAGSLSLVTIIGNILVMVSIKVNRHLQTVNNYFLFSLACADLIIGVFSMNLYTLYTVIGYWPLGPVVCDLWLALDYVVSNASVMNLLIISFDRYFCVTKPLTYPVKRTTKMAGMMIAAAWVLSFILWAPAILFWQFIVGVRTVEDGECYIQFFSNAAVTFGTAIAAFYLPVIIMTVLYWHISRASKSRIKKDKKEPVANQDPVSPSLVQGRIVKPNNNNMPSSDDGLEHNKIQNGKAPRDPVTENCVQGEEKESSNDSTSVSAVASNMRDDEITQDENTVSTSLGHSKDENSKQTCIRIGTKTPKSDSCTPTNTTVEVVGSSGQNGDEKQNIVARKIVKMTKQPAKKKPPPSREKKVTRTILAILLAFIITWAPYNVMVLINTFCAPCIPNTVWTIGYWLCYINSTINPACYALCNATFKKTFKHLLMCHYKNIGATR

In another test the target is D(2) dopamine receptor (Homo sapiens, UniProt P14416).
Sequence of D(2) dopamine receptor (P14416 whole entry): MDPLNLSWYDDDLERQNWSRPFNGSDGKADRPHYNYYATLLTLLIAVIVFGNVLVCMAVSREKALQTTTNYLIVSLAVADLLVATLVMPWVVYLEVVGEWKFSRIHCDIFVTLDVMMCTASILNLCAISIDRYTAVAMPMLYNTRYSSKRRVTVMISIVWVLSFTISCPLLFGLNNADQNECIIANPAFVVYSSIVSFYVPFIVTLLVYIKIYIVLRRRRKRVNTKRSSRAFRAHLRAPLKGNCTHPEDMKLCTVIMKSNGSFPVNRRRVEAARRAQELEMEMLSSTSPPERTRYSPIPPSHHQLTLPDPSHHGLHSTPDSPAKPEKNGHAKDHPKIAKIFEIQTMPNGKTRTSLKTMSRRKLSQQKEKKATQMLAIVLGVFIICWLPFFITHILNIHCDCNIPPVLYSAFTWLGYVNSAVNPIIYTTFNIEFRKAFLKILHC
For test [6], the target named is T5, Alpha-2A adrenergic receptor (Homo sapiens, UniProt P08913).
T5 sequence (P08913 whole entry): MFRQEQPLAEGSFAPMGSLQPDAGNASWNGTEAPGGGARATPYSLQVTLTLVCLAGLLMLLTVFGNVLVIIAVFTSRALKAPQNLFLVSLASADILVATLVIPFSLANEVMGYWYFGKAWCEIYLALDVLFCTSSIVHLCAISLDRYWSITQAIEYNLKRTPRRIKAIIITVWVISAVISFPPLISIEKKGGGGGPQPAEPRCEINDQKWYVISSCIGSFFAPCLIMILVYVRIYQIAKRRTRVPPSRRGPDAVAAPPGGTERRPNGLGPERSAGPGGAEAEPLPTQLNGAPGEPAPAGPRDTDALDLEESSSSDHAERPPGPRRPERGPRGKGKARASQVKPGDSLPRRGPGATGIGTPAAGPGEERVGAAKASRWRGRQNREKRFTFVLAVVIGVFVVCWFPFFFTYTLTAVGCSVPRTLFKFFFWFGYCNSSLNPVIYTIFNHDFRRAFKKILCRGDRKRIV

In test [7] the target is 5-hydroxytryptamine receptor 1D (Homo sapiens, UniProt P28221).
Sequence of 5-hydroxytryptamine receptor 1D (P28221 whole entry): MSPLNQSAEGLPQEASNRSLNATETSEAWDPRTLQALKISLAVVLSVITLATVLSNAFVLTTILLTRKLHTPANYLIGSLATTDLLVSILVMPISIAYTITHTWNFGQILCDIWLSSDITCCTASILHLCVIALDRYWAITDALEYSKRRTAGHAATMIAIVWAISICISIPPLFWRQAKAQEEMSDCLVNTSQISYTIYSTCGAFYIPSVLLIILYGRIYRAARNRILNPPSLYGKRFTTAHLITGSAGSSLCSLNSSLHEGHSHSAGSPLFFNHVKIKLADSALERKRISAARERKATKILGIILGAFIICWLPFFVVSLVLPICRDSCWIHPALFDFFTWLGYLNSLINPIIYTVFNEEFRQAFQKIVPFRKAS

Drawing on BindingDB's records for doi:10.1016/0006-3223(89)90217-5 (Stanford University, 1989), this text covers Ki for 1 molecule.

Each structure is given as a SMILES string.

Sequence of D(1A) dopamine receptor (P21728 whole entry): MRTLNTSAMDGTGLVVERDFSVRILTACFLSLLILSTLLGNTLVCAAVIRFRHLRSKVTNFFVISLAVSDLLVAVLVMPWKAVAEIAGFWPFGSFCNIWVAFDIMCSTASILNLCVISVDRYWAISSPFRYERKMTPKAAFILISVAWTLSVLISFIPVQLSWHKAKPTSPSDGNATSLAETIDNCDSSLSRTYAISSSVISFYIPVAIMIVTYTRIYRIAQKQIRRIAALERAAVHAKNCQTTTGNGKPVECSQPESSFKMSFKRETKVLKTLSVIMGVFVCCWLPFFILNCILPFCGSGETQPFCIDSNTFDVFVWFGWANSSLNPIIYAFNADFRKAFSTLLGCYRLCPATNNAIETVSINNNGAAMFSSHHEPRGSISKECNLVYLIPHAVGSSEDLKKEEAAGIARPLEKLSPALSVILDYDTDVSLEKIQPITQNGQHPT
Sequence of Beta-2 adrenergic receptor (P07550 whole entry): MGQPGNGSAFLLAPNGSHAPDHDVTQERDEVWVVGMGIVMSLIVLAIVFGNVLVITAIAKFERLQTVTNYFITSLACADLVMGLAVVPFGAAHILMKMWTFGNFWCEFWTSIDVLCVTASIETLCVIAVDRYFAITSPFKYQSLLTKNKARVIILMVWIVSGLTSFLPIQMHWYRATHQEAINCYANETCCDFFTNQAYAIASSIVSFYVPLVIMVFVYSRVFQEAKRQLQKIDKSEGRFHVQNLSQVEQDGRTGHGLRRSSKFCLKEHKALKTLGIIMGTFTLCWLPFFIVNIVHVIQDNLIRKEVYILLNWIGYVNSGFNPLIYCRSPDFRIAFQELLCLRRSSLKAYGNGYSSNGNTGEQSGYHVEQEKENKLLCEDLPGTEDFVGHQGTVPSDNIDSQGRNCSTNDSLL

What is called Ki is a dissociation constant, usually derived from enzyme kinetics or from competition with a known ligand. The low end stands for tighter binding, the high end for weaker binding. In the case of `Clc1cccc(N2CCNCC2)c1` [mCPP], the Ki in test [1] is 2.5 µM; on D(1A) dopamine receptor it was 7 µM; in [2], 2.9 µM; in [3] it was 0.4 µM; in test [4], greater than 10 µM; in test [5] it was greater than 10 µM. Further, the values for the Ki (at D(2) dopamine receptor; in test [6]; in test [7]) were greater than 10 µM, 0.57 µM and 1.3 µM, respectively.
